What was measured:
[1] = tested on: SOCE (store operated calcium entry) in CHO cells; experiment: Assay of SOCE (store operated calcium entry)-inhibiting action; format: cell-based, Chinese hamster; conditions: Cricetulus griseus, CHO, CHO cells, thapsigargin, read-out: SOCE level (percentage of inhibition); for inhibition at 10 µM: test compound 10 μmol; for inhibition at 30 µM: test compound 30 μmol; for inhibition at 100 µM: test compound 100 μmol
Method in brief: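 CHO cells in calcium-free BSS received compound, then 1 μM thapsigargin 2 min later to deplete stores; after 9 min, 2 mM calcium chloride (final) added. Percent inhibition of the rise in intracellular calcium determined at various compound concentrations.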

[2] = tested on: IICR (IP3 induced calcium release) in CHO cells; experiment: Assay of IICR (IP3 induced calcium release)-inhibiting action; format: cell-based, Chinese hamster; conditions: Cricetulus griseus, CHO, CHO cells, 10 μM ATP, read-out: IICR level (percentage of inhibition); for inhibition at 10 µM: test compound 10 μmol; for inhibition at 30 µM: test compound 30 μmol; for inhibition at 100 µM: test compound 100 μmol
Method in brief: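 Inhibition (%) of the intracellular calcium increase triggered by 10 μM ATP, measured in CHO cells in BSS with calcium. Compound given 1 min after the buffer exchange and 2 min before ATP; values reported per compound concentration.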

Structure (SMILES)	inhibition at 10 µM [1] [%]	inhibition at 30 µM [1] [%]	inhibition at 100 µM [1] [%]	inhibition at 10 µM [2] [%]	inhibition at 30 µM [2] [%]	inhibition at 100 µM [2] [%]
CCN(CCC(=O)c1ccncc1)Cc1ccccc1 [Example 209, 2-(N-ethylbenzyl)aminoethyl-4-pyridylketone]	0	20	60	20	20	50
CC(C)(C)N(CCC(=O)c1ccncc1)Cc1ccccc1 [Example 210, 2-(N-t-butylbenzyl)aminoethyl-4-pyridylketone]	0	10	30	0	20	0
O=C(CCN1CCN(c2ccco2)CC1)c1ccc(F)cc1 [Example 211, 2-(N-2-furylpiperadino)ethyl-4-fluorophenylketone]	0	10	30	30	20	20
CC(C)N(CCC(=O)c1ccc(F)cc1)Cc1ccccc1 [Example 212, 2-(N-isopropylbenzyl)aminoethyl-4-fluorophenylketone]	0	30	50	20	80	30
CC(C)(C)N(CCC(=O)c1cnccn1)Cc1ccccc1 [Example 213, 2-(N-2-benzyl-t-butyl)aminoethyl-2-pyrazylketone]	0	0	10	20	80	90
CC(C)(C)N(CCO)CCC(=O)c1cnccn1 [Example 214, 2-(N-2-hydroxyethyl-t-butyl)aminoethyl-2-pyrazylketone]	10	0	0	0	0	0
CN(CCC(=O)c1cnccn1)Cc1ccccc1 [Example 215, 2-(N-benzylmethyl)aminoethyl-2-pyrazylketone]	0	0	0	0	0	50
O=C(CCNCCCCNCCCNCCC(=O)c1ccncc1)c1ccncc1 [Example 216, N,N-bis(4-pyrizoylethyl)spermidine]	0	10	10	0	0	30
O=C(CCN1CCCCC1CO)c1ccncc1 (stereo not drawn) [Example 217]	10	0	20	0	20	50
CCN(CCC(=O)c1ccc2c(c1)Cc1ccccc1-2)Cc1ccccc1 [Example 218, 2-(N-benzylethyl)aminoethyl-2-florenylketone]	20	60	70	10	40	70
Cc1nc(C)c(C(=O)CCN(Cc2ccccc2)C(C)C)s1 [Example 219, 2-(N-benzylisopropyl)aminoethyl-5-(2,4-dimethylthiazolyl)ketone]	0	0	0	20	90	100
Cc1nc(C)c(C(=O)CCNCCNCCO)s1 [Example 220, 2-(N-2-hydroxyaminoethyl)aminoethyl-5-(2,4-dimethylthiazolyl)ketone]	0	0	0	0	40	40
Cc1cc(C(=O)CCN(Cc2ccccc2)C(C)C)c(C)o1 [Example 221, 2-(N-benzylisopropyl)aminoethyl-3-(2,5-dimethylfuryl)ketone]	0	0	0	0	0	0
CC(C)N(CCC(=O)c1ccsc1)Cc1ccccc1 [Example 222, 2-(N-isopropylbenzyl)aminoethyl-3-thiophenylketone]	0	0	10	0	30	80
O=C(CCNCCc1ccccc1)c1ccsc1 [Example 223, 2-(N-phenethyl)aminoethyl-3-thiophenylketone]	0	10	20	0	0	0
CC(C)N(CCC(=O)n1ccnc1)Cc1ccccc1 [Example 224, 2-(N-isopropylbenzyl)aminoethyl-1-imidazolylketone]	0	0	20	20	20	0
Cc1cc(C(=O)CCN(Cc2ccccc2)C(C)C)oc1C [Example 225, 2-(N-isopropylbenzyl)aminoethyl-4,5-dimethyl-2-furylketone]	10	30	70	20	30	90
CCN(CCO)CCC(=O)c1cc(C)c(C)o1 [Example 226, 2-(N-2-hydroxyethylethyl)aminoethyl-4,5-dimethyl-2-furylketone]	0	0	0	0	0	50
Cc1cc(C(=O)CCN(CCO)Cc2ccccc2)oc1C [Example 227, 2-(N-2-hydroxyethylbenzyl)aminoethyl-4,5-dimethyl-2-furylketone]	0	0	0	20	0	20
CCN(CCO)CCC(=O)c1cc(C)sc1C [Example 228, 2-(N-2-hydroxyethylethyl)aminoethyl-2,5-dimethyl-3-thiophenylketone]	0	0	20	20	0	20
Cc1cc(C(=O)CCN(CCO)CCO)c(C)s1 [Example 229, 2-(N,N-bis-2-hydroxyethyl)aminoethyl-2,5-dimethyl-3-thiophenylketone]	0	0	0	0	0	0
Cc1cc(C(=O)CCN(CCO)C(C)C)c(C)s1 [Example 230, 2-(N-2-hydroxyethylisopropyl)aminoethyl-2,5-dimethyl-3-thiophenylketone]	0	0	0	0	0	20
CC(C)(C)N(CCC(=O)c1cccnc1)Cc1ccccc1 [Example 231, 2-(N-benzyl-t-butyl)aminoethyl-3-pyridylketone]	0	0	0	20	90	100
CC(C)(C)N(CCO)CCC(=O)c1cccnc1 [Example 232, 2-(N-t-butyl-2-hydroxyethyl)aminoethyl-3-pyridylketone]	0	0	0	0	10	10
CN(CCC(=O)c1ccco1)Cc1ccccc1 [Example 233, 2-(N-benzylmethyl)aminoethyl-2-furylketone]	0	0	10	30	70	80
CCCCN(CCO)CCC(=O)c1ccco1 [Example 234, 2-(N-2-hydroxyethylbutyl)aminoethyl-2-furylketone]	0	0	10	0	70	80
CN(CCO)CCC(=O)c1ccco1 [Example 235, 2-(N-2-hydroxyethylmethyl)aminoethyl-2-furylketone]	0	0	0	0	90	80
CN(CCC(=O)c1ccsc1)Cc1ccccc1 [Example 236, 2-(N-benzylmethyl)aminoethyl-3-thiophenylketone]	0	0	20	10	10	80

Reference: US8937091B2 (Japan Science and Technology Agency, priority 2009, dated 2015)
